The results in this text go back to US6565892B2, “Synergistic fungicidal composition comprising a compound analogous to strobilurin” (Rhone-Poulenc Agrochimie, priority 1995, dated 2003).

The assay relates to Plasmopara viticola. Kind of assay: In vivo test with respect to Plasmopara viticola (grape downy mildew) on Chardonnay vine cuttings, preventive treatment 72 hours before infection. The note with it: in Vitis vinifera, spray 72 h before infection, reading 7 days after infection, read-out: dose of A alone which it is necessary to apply for the destruction of 50% of the parasite. How it is done:
A suspension comprising the compounds A and B in a liquid mixture composed of a surface-active agent (oleate of polyoxyethylenated derivative of sorbitan) and water is prepared.
The component B is fosetyl-Al; the A/B ratio is 0.05, 0.07 and 0.1 (B/A=20, 15 and 10).
Vine (Vitis vinifera) cuttings, variety Chardonnay, are grown in small pots. When these seedlings are 2 months old (8- to 10-leaf stage, height of 10 to 15 cm), they are treated by spraying with the above suspension.
After 72 hours, each seedling is infected by spraying with an aqueous suspension of spores of Plasmopara viticola, which suspension is obtained from sporulated leaves infected 7 days previously. These spores are suspended at a concentration of 100,000 units per cm^3 of inoculum. Infection is carried out by spraying the inoculum at the undersurface of the leaves.
The infected seedlings are then incubated for seven days at 20-22° C. at 90-100% relative humidity under natural light.
Reading is carried out 7 days after infection, in comparison with the control seedlings.
The results obtained are reported in the form of points, corresponding to 50% destruction of the parasite, and are plotted on a Tammes isobole diagram which contains, on the abscissa, the doses of A expressed in ppm (mg/l) and, on the ordinate, the doses of B, also in ppm (mg/l). […]

In brackets after ≈: the same amount, converted by molar mass. Like-named read-outs stand apart in the source and are kept apart here.

Turning to `CO/C=C(/C(=O)OC)c1ccccc1Oc1cc(Oc2ccccc2C#N)ncn1` [ICIA5504, methyl (E)-2-{2-[6-(2-cyanophenoxy)pyrimidin-4-yloxy]phenyl}-3-methoxyacrylate], the EC50 (A = ICIA5504 alone) was 1.5 µg/mL (≈ 3.72 µM).
As to `CNC(=O)/C(=N/OC)c1ccccc1COc1cc(C)ccc1C` [SSF-129, N-methyl-(E)-methoxyimino[2-(2,5-dimethylphenoxymethyl)phenyl]acetamide], the EC50 (A = SSF-129 alone) is 4.6 µg/mL (≈ 14.1 µM).
